According to article PMC9569420 (Communications Biology, 2022):

Tests used:
PLK3 = target: T1, PLK3 (Homo sapiens, UniProt Q9H4B4); test: HotSpot kinase assay; assay type: biochemical; conditions: read-out: % Enzyme Activity (relative to DMSO controls)
T1 construct: purchased Reaction Biology Corporation

EIF2AK3 = target: T2, EIF2AK3 (Homo sapiens, UniProt Q9NZJ5); test: HotSpot kinase assay; assay type: biochemical; conditions: read-out: % Enzyme Activity (relative to DMSO controls)
T2 construct: purchased Reaction Biology Corporation

SGK2 = target: T3, SGK2 (Homo sapiens, UniProt Q9HBY8); test: HotSpot kinase assay; assay type: biochemical; conditions: read-out: % Enzyme Activity (relative to DMSO controls)
T3 construct: purchased Reaction Biology Corporation
T3 sequence (Q9HBY8 whole entry): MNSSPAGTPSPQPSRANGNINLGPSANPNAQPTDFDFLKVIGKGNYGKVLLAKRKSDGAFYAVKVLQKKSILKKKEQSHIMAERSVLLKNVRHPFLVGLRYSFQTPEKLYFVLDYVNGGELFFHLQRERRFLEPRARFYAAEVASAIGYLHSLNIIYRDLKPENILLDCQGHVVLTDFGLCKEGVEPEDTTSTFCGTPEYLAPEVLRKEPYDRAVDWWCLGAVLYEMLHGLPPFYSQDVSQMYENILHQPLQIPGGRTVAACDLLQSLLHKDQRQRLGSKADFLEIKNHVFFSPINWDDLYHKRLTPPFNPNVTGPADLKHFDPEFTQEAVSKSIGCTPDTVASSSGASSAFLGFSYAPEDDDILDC

PAK3 = target: T4, PAK3 (Homo sapiens, UniProt O75914); test: HotSpot kinase assay; assay type: biochemical; conditions: read-out: % Enzyme Activity (relative to DMSO controls)
T4 construct: purchased Reaction Biology Corporation
T4 sequence (O75914 whole entry): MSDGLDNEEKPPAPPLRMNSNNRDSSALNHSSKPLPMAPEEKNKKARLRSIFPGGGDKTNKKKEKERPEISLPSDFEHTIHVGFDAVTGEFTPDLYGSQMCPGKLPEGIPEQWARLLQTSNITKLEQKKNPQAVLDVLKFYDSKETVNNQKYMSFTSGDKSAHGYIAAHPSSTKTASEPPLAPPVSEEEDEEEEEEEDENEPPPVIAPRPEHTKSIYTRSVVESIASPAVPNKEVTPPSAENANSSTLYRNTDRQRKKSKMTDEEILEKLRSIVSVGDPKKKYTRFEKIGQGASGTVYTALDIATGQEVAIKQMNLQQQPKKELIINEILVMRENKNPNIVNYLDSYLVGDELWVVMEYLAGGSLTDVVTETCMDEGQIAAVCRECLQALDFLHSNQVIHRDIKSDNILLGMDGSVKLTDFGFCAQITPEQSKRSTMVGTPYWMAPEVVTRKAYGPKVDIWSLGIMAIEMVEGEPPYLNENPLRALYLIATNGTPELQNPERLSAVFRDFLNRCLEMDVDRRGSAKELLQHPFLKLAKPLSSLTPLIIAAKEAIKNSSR

EPHB1 = target: T5, EPHB1 (Homo sapiens, UniProt P54762); test: HotSpot kinase assay; assay type: biochemical; conditions: read-out: % Enzyme Activity (relative to DMSO controls)
T5 construct: purchased Reaction Biology Corporation
T5 sequence (P54762 18-984): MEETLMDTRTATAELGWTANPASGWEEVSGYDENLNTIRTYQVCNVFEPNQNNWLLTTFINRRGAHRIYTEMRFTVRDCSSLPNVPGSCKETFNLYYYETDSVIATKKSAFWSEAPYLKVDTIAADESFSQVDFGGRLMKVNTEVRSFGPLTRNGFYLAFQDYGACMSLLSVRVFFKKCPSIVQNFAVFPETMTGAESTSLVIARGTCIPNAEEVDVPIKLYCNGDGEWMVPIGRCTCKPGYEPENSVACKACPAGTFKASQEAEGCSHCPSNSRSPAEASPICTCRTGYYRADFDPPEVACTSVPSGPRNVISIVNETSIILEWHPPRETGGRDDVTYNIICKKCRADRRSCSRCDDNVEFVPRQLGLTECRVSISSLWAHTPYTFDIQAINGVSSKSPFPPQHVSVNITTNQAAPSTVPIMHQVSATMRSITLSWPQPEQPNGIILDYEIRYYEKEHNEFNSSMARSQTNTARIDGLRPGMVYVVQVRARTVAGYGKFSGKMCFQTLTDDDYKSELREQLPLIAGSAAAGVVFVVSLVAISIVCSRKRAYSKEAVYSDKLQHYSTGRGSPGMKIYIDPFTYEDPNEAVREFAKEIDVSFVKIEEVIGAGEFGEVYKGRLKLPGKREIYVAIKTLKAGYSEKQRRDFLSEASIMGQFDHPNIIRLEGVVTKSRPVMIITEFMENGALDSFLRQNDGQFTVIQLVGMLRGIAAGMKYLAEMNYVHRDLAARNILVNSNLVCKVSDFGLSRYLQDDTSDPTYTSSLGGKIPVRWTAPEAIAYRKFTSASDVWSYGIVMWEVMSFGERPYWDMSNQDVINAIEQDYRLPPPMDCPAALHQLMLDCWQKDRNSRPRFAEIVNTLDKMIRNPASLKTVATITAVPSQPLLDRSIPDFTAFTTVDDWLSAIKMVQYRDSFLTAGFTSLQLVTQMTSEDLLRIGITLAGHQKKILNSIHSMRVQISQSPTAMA

MAPKAPK5/PRAK = target: T6, MAPKAPK5/PRAK (Homo sapiens, UniProt Q8IW41); test: HotSpot kinase assay; assay type: biochemical; conditions: read-out: % Enzyme Activity (relative to DMSO controls)
T6 construct: purchased Reaction Biology Corporation
T6 sequence (Q8IW41 whole entry): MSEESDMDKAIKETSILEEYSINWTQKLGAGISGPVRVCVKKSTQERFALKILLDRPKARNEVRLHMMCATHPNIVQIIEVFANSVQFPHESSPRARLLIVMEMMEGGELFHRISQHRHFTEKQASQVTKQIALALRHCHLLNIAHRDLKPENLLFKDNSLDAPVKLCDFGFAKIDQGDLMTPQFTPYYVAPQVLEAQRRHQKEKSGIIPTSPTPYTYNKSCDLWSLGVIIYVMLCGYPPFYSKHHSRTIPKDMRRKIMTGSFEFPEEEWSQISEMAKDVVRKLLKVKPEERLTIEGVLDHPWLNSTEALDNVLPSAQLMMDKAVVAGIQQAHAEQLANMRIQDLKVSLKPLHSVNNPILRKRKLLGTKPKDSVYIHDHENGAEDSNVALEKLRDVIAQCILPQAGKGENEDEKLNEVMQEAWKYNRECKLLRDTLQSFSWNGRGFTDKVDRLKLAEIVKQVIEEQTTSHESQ

SLK/STK2 = target: T7, SLK/STK2 (Homo sapiens, UniProt Q9H2G2); test: HotSpot kinase assay; assay type: biochemical; conditions: read-out: % Enzyme Activity (relative to DMSO controls)
T7 construct: purchased Reaction Biology Corporation

TYK2 = target: T8, TYK2 (Homo sapiens, UniProt P29597); test: HotSpot kinase assay; assay type: biochemical; conditions: read-out: % Enzyme Activity (relative to DMSO controls)
T8 construct: purchased Reaction Biology Corporation

YES/YES1 = target: T9, YES/YES1 (Homo sapiens, UniProt P07947); test: HotSpot kinase assay; assay type: biochemical; conditions: read-out: % Enzyme Activity (relative to DMSO controls)
T9 construct: purchased Reaction Biology Corporation

CK1epsilon = target: T10, CK1epsilon (Homo sapiens, UniProt P49674); test: HotSpot kinase assay; assay type: biochemical; conditions: read-out: % Enzyme Activity (relative to DMSO controls)
T10 construct: purchased Reaction Biology Corporation

PDK1/PDPK1 = target: T11, PDK1/PDPK1 (Homo sapiens, UniProt O15530); test: biochemical
T11 construct: purchased Reaction Biology Corporation
T11 sequence (O15530 1-556): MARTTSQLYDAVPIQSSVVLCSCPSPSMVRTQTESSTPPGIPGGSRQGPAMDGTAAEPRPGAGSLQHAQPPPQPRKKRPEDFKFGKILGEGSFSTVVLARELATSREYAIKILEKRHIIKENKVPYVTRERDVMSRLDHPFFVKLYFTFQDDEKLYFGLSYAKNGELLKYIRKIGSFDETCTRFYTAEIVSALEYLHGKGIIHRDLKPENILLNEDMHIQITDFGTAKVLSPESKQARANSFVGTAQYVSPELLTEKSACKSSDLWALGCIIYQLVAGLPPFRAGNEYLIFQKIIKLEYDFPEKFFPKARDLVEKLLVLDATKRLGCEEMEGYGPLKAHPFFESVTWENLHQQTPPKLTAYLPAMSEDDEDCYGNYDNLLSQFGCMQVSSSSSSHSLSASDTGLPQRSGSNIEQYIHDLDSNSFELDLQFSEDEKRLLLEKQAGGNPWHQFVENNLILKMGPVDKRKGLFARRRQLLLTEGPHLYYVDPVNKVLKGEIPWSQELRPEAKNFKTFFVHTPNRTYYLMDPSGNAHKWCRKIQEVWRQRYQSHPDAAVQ

PKG1a = target: T12, PKG1a (Homo sapiens, UniProt Q13976); test: HotSpot kinase assay; assay type: biochemical; conditions: read-out: % Enzyme Activity (relative to DMSO controls)
T12 construct: purchased Reaction Biology Corporation
T12 sequence (Q13976 whole entry): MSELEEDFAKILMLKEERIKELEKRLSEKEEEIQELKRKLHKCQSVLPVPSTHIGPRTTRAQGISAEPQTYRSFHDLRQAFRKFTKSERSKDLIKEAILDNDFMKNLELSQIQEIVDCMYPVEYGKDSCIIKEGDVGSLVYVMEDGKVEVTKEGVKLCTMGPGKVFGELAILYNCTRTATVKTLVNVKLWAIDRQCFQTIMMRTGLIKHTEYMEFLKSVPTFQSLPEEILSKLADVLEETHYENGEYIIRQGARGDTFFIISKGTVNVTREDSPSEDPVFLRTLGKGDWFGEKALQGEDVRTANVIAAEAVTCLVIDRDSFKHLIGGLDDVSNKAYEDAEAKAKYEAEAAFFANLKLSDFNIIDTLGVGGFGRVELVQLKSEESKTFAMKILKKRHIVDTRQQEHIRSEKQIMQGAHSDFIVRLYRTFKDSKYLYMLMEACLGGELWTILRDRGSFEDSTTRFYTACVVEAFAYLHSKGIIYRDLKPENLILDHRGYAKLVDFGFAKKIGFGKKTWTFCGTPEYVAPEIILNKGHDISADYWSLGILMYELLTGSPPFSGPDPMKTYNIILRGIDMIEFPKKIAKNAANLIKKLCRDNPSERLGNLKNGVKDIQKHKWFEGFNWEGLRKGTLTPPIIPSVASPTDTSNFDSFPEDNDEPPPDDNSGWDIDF

BRAF = target: T13, BRAF (Homo sapiens, UniProt P15056); test: HotSpot kinase assay; assay type: biochemical; conditions: read-out: % Enzyme Activity (relative to DMSO controls)
T13 construct: purchased Reaction Biology Corporation

AURORA C = target: T14, AURORA C (Homo sapiens, UniProt Q9UQB9); test: HotSpot kinase assay; assay type: biochemical; conditions: read-out: % Enzyme Activity (relative to DMSO controls)
T14 construct: purchased Reaction Biology Corporation

PDGFRa = target: T15, PDGFRa (Homo sapiens, UniProt P16234); test: HotSpot kinase assay; assay type: biochemical; conditions: read-out: % Enzyme Activity (relative to DMSO controls)
T15 construct: purchased Reaction Biology Corporation

MAST3 = target: T16, MAST3 (Homo sapiens, UniProt O60307); test: HotSpot kinase assay; assay type: biochemical; conditions: read-out: % Enzyme Activity (relative to DMSO controls)
T16 construct: purchased Reaction Biology Corporation

MSK1/RPS6KA5 = target: T17, MSK1/RPS6KA5 (Homo sapiens, UniProt O75582); test: HotSpot kinase assay; assay type: biochemical; conditions: read-out: % Enzyme Activity (relative to DMSO controls)
T17 construct: purchased Reaction Biology Corporation

Akt (pAkt T308) = assay type: cell-based, monkey; conditions: 10µM
CAMK1d = target: T18, CAMK1d (Homo sapiens, UniProt Q8IU85); test: HotSpot kinase assay; assay type: biochemical; conditions: read-out: % Enzyme Activity (relative to DMSO controls)
T18 construct: purchased Reaction Biology Corporation
T18 sequence (Q8IU85 whole entry): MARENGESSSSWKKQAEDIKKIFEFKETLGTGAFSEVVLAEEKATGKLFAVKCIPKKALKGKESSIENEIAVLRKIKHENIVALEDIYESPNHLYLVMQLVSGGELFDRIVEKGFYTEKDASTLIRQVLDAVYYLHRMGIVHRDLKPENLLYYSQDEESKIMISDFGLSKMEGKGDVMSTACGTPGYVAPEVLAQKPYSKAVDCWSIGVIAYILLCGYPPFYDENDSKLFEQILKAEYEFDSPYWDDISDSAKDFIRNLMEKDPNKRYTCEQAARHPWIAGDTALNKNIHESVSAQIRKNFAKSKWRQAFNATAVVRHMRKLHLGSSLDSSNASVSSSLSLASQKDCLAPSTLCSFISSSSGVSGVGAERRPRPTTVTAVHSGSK

ALK = target: T19, ALK (Homo sapiens, UniProt Q9UM73); test: HotSpot kinase assay; assay type: biochemical; conditions: read-out: % Enzyme Activity (relative to DMSO controls)
T19 construct: purchased Reaction Biology Corporation

CK1g1 = target: T20, CK1g1 (Homo sapiens, UniProt Q9HCP0); test: HotSpot kinase assay; assay type: biochemical; conditions: read-out: % Enzyme Activity (relative to DMSO controls)
T20 construct: purchased Reaction Biology Corporation

ULK1 = target: T21, ULK1 (Homo sapiens, UniProt O75385); test: biochemical; conditions: read-out: % Enzyme Activity (relative to DMSO controls)
T21 construct: purchased Reaction Biology Corporation

PKN3/PRK3 = target: T22, PKN3/PRK3 (Homo sapiens, UniProt Q6P5Z2); test: HotSpot kinase assay; assay type: biochemical; conditions: read-out: % Enzyme Activity (relative to DMSO controls)
T22 construct: purchased Reaction Biology Corporation

EPHA3 = target: T23, EPHA3 (Homo sapiens, UniProt P29320); test: HotSpot kinase assay; assay type: biochemical; conditions: read-out: % Enzyme Activity (relative to DMSO controls)
T23 construct: purchased Reaction Biology Corporation

MLCK2/MYLK2 = target: T24, MLCK2/MYLK2 (Homo sapiens, UniProt Q9H1R3); test: HotSpot kinase assay; assay type: biochemical; conditions: read-out: % Enzyme Activity (relative to DMSO controls)
T24 construct: purchased Reaction Biology Corporation

ROCK1 = target: T25, ROCK1 (Homo sapiens, UniProt Q13464); test: HotSpot kinase assay; assay type: biochemical; conditions: read-out: % Enzyme Activity (relative to DMSO controls)
T25 construct: purchased Reaction Biology Corporation

CDK6/cyclin D3 = target: T26, CDK6/cyclin D3 (Homo sapiens, UniProt Q00534); test: HotSpot kinase assay; assay type: biochemical; conditions: read-out: % Enzyme Activity (relative to DMSO controls)
T26 construct: purchased Reaction Biology Corporation

MLK2/MAP3K10 = target: T27, MLK2/MAP3K10 (Homo sapiens, UniProt Q02779); test: HotSpot kinase assay; assay type: biochemical; conditions: read-out: % Enzyme Activity (relative to DMSO controls)
T27 construct: purchased Reaction Biology Corporation

MEK2 = target: T28, MEK2 (Homo sapiens, UniProt P36507); test: HotSpot kinase assay; assay type: biochemical; conditions: read-out: % Enzyme Activity (relative to DMSO controls)
T28 construct: purchased Reaction Biology Corporation

ALK3/BMPR1A = target: T29, ALK3/BMPR1A (Homo sapiens, UniProt P36894); test: HotSpot kinase assay; assay type: biochemical; conditions: read-out: % Enzyme Activity (relative to DMSO controls)
T29 construct: purchased Reaction Biology Corporation

c-Src = target: T30, c-Src (Homo sapiens, UniProt P12931); test: biochemical
T30 construct: purchased Reaction Biology Corporation
T30 sequence (P12931 whole entry): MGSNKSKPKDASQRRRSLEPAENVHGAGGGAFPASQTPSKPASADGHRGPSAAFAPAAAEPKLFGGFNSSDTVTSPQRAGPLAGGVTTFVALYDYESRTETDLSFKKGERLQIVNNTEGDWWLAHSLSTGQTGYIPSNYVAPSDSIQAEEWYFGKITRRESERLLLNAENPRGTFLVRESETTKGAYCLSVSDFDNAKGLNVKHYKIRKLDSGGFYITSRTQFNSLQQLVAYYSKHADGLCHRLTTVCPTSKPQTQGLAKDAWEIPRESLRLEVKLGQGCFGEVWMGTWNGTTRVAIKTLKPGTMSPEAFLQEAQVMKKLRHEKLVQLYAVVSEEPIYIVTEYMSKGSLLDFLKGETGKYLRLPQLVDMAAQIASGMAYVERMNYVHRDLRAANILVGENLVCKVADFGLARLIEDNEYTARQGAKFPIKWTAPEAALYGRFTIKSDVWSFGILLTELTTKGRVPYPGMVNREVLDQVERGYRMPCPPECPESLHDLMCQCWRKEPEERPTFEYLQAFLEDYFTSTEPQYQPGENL

RIPK4 = target: T31, RIPK4 (Homo sapiens, UniProt P57078); test: HotSpot kinase assay; assay type: biochemical; conditions: read-out: % Enzyme Activity (relative to DMSO controls)
T31 construct: purchased Reaction Biology Corporation

ACK1 = target: T32, ACK1 (Homo sapiens, UniProt Q07912); test: HotSpot kinase assay; assay type: biochemical; conditions: read-out: % Enzyme Activity (relative to DMSO controls)
T32 construct: purchased Reaction Biology Corporation

TRKB = target: T33, TRKB (Homo sapiens, UniProt Q16620); test: HotSpot kinase assay; assay type: biochemical; conditions: read-out: % Enzyme Activity (relative to DMSO controls)
T33 construct: purchased Reaction Biology Corporation
T33 sequence (Q16620 32-822): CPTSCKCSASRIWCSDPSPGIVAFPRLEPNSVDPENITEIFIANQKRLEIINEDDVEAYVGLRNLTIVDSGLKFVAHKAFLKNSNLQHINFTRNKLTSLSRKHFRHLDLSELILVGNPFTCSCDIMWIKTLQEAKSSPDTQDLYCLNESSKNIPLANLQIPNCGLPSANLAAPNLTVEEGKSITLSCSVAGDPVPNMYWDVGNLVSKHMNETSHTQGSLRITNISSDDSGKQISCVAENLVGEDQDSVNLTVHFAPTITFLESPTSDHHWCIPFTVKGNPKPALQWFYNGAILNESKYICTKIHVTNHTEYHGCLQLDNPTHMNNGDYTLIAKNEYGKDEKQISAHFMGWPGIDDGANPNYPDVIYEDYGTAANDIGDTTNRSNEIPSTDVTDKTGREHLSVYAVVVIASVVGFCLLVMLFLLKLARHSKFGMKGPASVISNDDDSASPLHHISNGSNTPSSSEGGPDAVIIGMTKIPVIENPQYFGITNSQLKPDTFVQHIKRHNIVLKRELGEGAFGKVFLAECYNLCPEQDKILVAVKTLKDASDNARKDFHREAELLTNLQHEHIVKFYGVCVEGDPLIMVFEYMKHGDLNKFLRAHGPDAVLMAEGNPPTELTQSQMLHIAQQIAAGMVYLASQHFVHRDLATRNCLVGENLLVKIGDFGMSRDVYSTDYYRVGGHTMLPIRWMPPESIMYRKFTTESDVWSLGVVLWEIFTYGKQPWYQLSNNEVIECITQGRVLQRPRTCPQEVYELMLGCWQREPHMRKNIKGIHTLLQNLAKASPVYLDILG

[1] = read-out: % Enzyme Activity (relative to DMSO controls), 10µM

## CO[C@@H]1[C@H](N(C)C(=O)CCC(=O)NCc2cn(CCCS(=O)(=O)O)nn2)C[C@H]2O[C@]1(C)n1c3ccccc3c3c4c(c5c6ccccc6n2c5c31)C(=O)NC4 [CIMSS]
PLK3
  remaining activity at 10 µM: 98.2%
EIF2AK3
  remaining activity at 10 µM: 61.6%
SGK2
  remaining activity at 10 µM: 22.6%
PAK3
  remaining activity at 10 µM: 6.48%
EPHB1
  remaining activity at 10 µM: 1.91%
MAPKAPK5/PRAK
  remaining activity at 10 µM: 85.2%
SLK/STK2
  remaining activity at 10 µM: 6.42%
TYK2
  remaining activity at 10 µM: 6.35%
YES/YES1
  remaining activity at 10 µM: 1.4%
CK1epsilon
  remaining activity at 10 µM: 38.8%
PDK1/PDPK1; Supplementary Table 1, PDPK1, read-out: IC50 (Molar concentration)
  IC50: 0.278 nM
PDK1/PDPK1; [1]
  remaining activity at 10 µM: 4.24%
PDK1/PDPK1; read-out: inhibition of PDPK1
  inhibition at 10 µM: > 75%
PKG1a
  remaining activity at 10 µM: 7.02%
BRAF
  remaining activity at 10 µM: 132%
AURORA C
  remaining activity at 10 µM: 2.59%
PDGFRa
  remaining activity at 10 µM: 6.05%
MAST3
  remaining activity at 10 µM: 106%
MSK1/RPS6KA5
  remaining activity at 10 µM: 1.53%
Akt (pAkt T308)
  extracellular phosphorylation of Akt: inhibited
CAMK1d
  remaining activity at 10 µM: 20.3%
ALK
  remaining activity at 10 µM: 4.12%
CK1g1
  remaining activity at 10 µM: 95.9%
ULK1
  remaining activity at 10 µM: 13.6%
PKN3/PRK3
  remaining activity at 10 µM: 20.2%
EPHA3
  remaining activity at 10 µM: 37.9%
MLCK2/MYLK2
  remaining activity at 10 µM: 27.3%
ROCK1
  remaining activity at 10 µM: 26.2%
CDK6/cyclin D3
  remaining activity at 10 µM: 56.8%
MLK2/MAP3K10
  remaining activity at 10 µM: 1.86%
MEK2
  remaining activity at 10 µM: 68%
ALK3/BMPR1A
  remaining activity at 10 µM: 79.5%
c-Src; Supplementary Table 1, read-out: IC50 (Molar concentration)
  IC50: 11.9 nM
c-Src; [1]
  remaining activity at 10 µM: 2.95%
RIPK4
  remaining activity at 10 µM: 99.1%
ACK1
  remaining activity at 10 µM: 7.33%
TRKB
  remaining activity at 10 µM: 1.79%
